In US7402684B2, “Biaryl substituted heterocycle inhibitors of LTA4H for treating inflammation” (deCODE genectics ehf., priority 2005, dated 2008):
Counter-ions that a name gives are not always drawn.

How the values were obtained:
[1] = biological target: T1, recombinant human LTA4 hydrolase (Homo sapiens, UniProt P09960); test: In vitro assay testing inhibitory activity against purified recombinant human LTA4 hydrolase (LTB4 formed measured by LC-MS/MS); assay type: biochemical; details: purified recombinant human LTA4 hydrolase 200 nM, LTA4 2 μM, 120 sec at room temperature; read-out: AvgIC50
T1 construct: A human LTA4 hydrolase full-length cDNA clone (NM_000895) was purchased from OriGene Technologies; made in house; host or cells: Escherichia coli BL21-AI
T1 sequence (P09960 1-611): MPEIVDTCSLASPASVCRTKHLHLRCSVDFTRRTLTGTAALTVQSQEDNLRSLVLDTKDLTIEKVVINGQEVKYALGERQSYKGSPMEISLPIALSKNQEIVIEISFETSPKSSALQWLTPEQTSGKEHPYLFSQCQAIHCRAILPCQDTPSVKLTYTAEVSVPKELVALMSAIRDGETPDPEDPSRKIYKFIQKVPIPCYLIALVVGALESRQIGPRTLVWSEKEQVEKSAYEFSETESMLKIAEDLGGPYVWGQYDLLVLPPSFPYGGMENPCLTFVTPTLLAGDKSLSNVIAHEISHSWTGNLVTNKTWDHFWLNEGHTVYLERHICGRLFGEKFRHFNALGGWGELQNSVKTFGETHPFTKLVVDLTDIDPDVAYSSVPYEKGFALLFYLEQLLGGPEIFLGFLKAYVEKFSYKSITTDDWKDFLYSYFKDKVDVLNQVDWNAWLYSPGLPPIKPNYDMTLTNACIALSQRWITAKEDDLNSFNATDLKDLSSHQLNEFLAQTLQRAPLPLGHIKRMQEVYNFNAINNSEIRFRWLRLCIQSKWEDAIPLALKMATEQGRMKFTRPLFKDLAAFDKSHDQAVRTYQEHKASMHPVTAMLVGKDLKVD
Protocol: The compounds of the invention were incubated in a series of dilutions with 200 nM of recombinant enzyme in assay buffer (100 mM Tris-HCl, 100 mM NaCl, 5 mg/ml fatty-acid free BSA, 10% DMSO, pH 8.0) for 10 min at room temperature to allow binding between LTA4 hydrolase and the inhibitors. LTA4 was prepared by alkaline hydrolysis of LTA4 methyl ester (Biomol, Plymouth Meeting, Pa., or Cayman Chemicals, Ann Arbor, Mich.). A solution of 10 μg of the ester was dried under a nitrogen stream and redissolved in 60 μl of a solution of 80% acetone and 20% 0.25 M NaOH. After incubation for 40 min at room temperature the resulting approximately 500 mM tock of LTA4 was kept at −80° C. for no more than a few days prior to use.
Immediately before the assay, LTA4 was diluted to a concentration of 10 μM in assay buffer (without DMSO) and added to the reaction mixture to a final concentration of 2 μM to initiate the enzyme reaction. […] The samples were then kept at 4° C. overnight to complete protein precipitation and centrifuged for 15 min at 1800 g.

human whole blood = test: Ex vivo assay testing inhibitory activity in human whole blood after stimulation with calcium ionophor (LTB4 by ELISA); assay type: cell-based; details: 0.5 h, Ionomycin 20 μM, 30 min at 37° C., read-out: hWBIC50
Protocol: (2) Ex vivo assay testing inhibitory activity in human whole blood after stimulation with calcium ionophor.
Human blood was collected in heparin-containing Vacutainer tubes. […] Then 4 μl of a series of compound dilutions (in DMSO) were added, followed by a 15 min incubation at 37° C. with gentle shaking. After that, blood samples were stimulated by adding Ionomycin (Calbiochem) to a final concentration of 20 μM. After another incubation at 37° C. for 30 min, samples were centrifuged for 5 min at 1800 g and 4° C. Supernatants were taken and LTB4 concentrations were determined using a commercially available enzyme-linked immunosobentassay (R&D Systems, Minneapolis, Minn.) according to the manufacturer's instructions.

colitis symptoms = details: eight weeks of treatment; cited from earlier work

`O=C(O)CN1CCC[C@H]1COc1ccc(Cc2ccccc2)cc1` [Example 35, [(S)-2-(4-Benzyl-phenoxymethyl)-pyrrolidin-1-yl]-acetic acid TFA salt] gave an IC50 [1] of 5 to 20 µM.

`Cc1ccc(Oc2ccc(OC[C@@H]3CCCN3CCCC(=O)O)cc2)cc1` [Example 37, 4-[(S)-2-(4-p-Tolyloxy-phenoxymethyl)-pyrrolidin-1-yl]-butylic acid HCl] gave an IC50 [1] of less than 5 µM.

`c1csc(-c2ccc(Cc3ccc(OC[C@@H]4CCCN4)cc3)cc2)c1` [Example 117, (S)-2-[4-(2-thiophen-benzyl)-phenoxymethyl]-pyrrolidine hydrogen chloride salt] showed an IC50 (human whole blood) of less than 5 µM and an IC50 [1] of less than 5 µM.

In the case of `CN(CCCOc1ccc(Cc2ccccc2)cc1)CCC(=O)O.Cl` [SC57461], the “colitis symptoms in a primate model” value (colitis symptoms) is given as “significantly improved colitis symptoms”.
